Assay results published in PubChem BioAssay (NCI).
Several values for one entry are separate records, joined by “and”; a condition that tells them apart may be missing. Identical values can stand only once.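 Briefly, cells in 96-well plates were exposed to five compound concentrations for 48 h, and endpoints were estimated by linear interpolation. GI50 marks 50% less growth. At the TGI there is no net growth.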

Assays:
Test in all cases: growth of human tumour cells (NCI), 48 h
U251 CNS = test system: U251 CNS
SF-539 CNS = test system: SF-539 CNS
SF-268 CNS = test system: SF-268 CNS
SK-MEL-28 melanoma = test system: SK-MEL-28 melanoma
RPMI-8226 leukemia = test system: RPMI-8226 leukemia
COLO 205 colon = test system: COLO 205 colon
NCI-H522 lung = test system: NCI-H522 lung
OVCAR-3 ovarian = test system: OVCAR-3 ovarian
HOP-92 NSCLC = test system: HOP-92 NSCLC
M14 melanoma = test system: M14 melanoma

SMILES	TGI (U251 CNS) [µM]	TGI (SF-539 CNS) [µM]	TGI (SF-268 CNS) [µM]	TGI (SK-MEL-28 melanoma) [µM]	TGI (RPMI-8226 leukemia) [µM]	TGI (COLO 205 colon)	TGI (NCI-H522 lung) [µM]	TGI (OVCAR-3 ovarian)	TGI (HOP-92 NSCLC) [µM]	TGI (M14 melanoma)	GI50 (U251 CNS)	GI50 (SF-539 CNS)	GI50 (SF-268 CNS)	GI50 (SK-MEL-28 melanoma)	GI50 (RPMI-8226 leukemia)	GI50 (COLO 205 colon)	GI50 (NCI-H522 lung) [µM]	GI50 (OVCAR-3 ovarian)	GI50 (M14 melanoma)	GI50 (HOP-92 NSCLC) [µM]
N#C/C(=C(\O)C(=O)O)c1ccc(-c2cccc3ccccc23)cc1	> 100	> 100	> 100	> 100	> 100	> 100 µM	> 100	> 100 µM	> 100	> 100 µM										
O=C(c1ccco1)N(C(=S)N1CCN(c2ccccc2)CC1)c1ccccc1	> 100	> 100	> 100	> 100	> 100	> 100 µM	> 100	> 100 µM	> 100	> 100 µM										
CCOC(OC1=C(C#N)CCC1)C(CC)[Se]c1ccccc1 (centres undefined)	23.9	37.6	38.7	90.4	49.8	53.9 µM	26.8	58.5 µM	54	32.3 µM										
O=c1oc2c3ccc4ccccc4c3n(Cc3nc4ccccc4[nH]3)c2c2ccccc12	> 100	> 26.2	> 100	> 100	> 100	> 100 µM	> 100	> 72.8 µM	> 100	> 100 µM										
c1cc(-c2sc(-c3ccncc3)c(-c3ccncc3)c2-c2ccncc2)ccn1	27.8	35	37.7	46.1	> 100	27.4 µM	35.9	44.4 µM	29.6	31.2 µM										
Cc1c2ncccc2c(C)c2c1[nH]c1ccccc12	24.7	26	34.8	28.9	26.2	26.9 µM	26.7	28.3 µM	25.3	44.9 µM										
CC(=O)O/C(C)=C\C(=O)O/N=C(\N)c1ccc(C)cc1	40.5	57.4	91.6	42.7	> 100	> 100 µM	49.1	> 100 µM	> 100	93.1 µM										
Cn1cnc([N+](=O)[O-])c1Sc1ncnc2nc[nH]c12	> 100	> 100	> 100	> 100	> 100	65.1 µM and > 100 µM	> 100	75.9 µM and > 80.2 µM	> 100	60.5 µM and > 100 µM	13.9 µM and 27.7 µM	4.81 µM and 3.26 µM	5.32 µM and 6.48 µM	37.8 µM and 40.2 µM	3.18 µM and 1.55 µM	11.6 µM and 19.9 µM	7.56	2.92 µM and 3.23 µM	0.755 µM and 2.77 µM	
O=Nc1c2cccnc2n2nnc3ccc(Cl)cc3c12	13.2	10.5	9.4	5.36	1.7	5.07 µM	3.38	1.45 µM	1.75	8.36 µM	2.57 µM	3.68 µM	1.8 µM	2.39 µM	0.258 µM	1.32 µM	1.14	0.447 µM	2.84 µM	0.0999
CCCc1ccc(N=Cc2cc(OC)c(OC)c(OC)c2)cc1	> 100	> 100	> 100	> 100	> 65.8	> 31.6 µM	> 100	> 100 µM	> 100	> 100 µM										
